Values joined by “and” are separate entries in the source; they are usually repeats but may differ in a detail not shown here. Identical values can stand only once. Toxic doses and inconclusive results are not listed. Numbered stars: 1 amine (or outer) side, 2 acyl side, 3 side chain; on linkers, the order of the positions; unused ones are H or OH. Bridge positions count the residues as written; N and C are the ends. Square brackets hold non-standard residues; d marks the D form. Peptide text beside a SMILES is read from it. I, II: the chains in the order shown. Actinocin(9to1) = Cc1c2oc3c(C)ccc(C(=O)[*:1])c3nc-2c(C(=O)[*:2])c(N)c1=O; X2 = O=C(C1CC(Cl)CN1[*:1])[*:2]; NMeV = CN[CH](C(=O)O)C(C)C; Sar = CNCC(=O)O
Test system: BDF1 mice, B16 melanoma ip, median survival T/C
Test: NCI In Vivo Anticancer Drug Screen. Data for tumor model B16 Melanoma (intraperitoneal) in B6D2F1 (BDF1) mice
Details: endpoint: median survival time, higher = longer survival
Procedure, shortened: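 Compounds were tested in mice carrying transplantable tumors. Survival or tumor size was recorded, and each value is the treated-group measurement (T) divided by that of the vehicle-treated control group (C).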

[1] = dose: 50.0 mg/kg/injection, schedule: Q01DX009 (ip), vehicle: saline
[2] = dose: 100.0 mg/kg/injection, schedule: Q01DX009 (ip), vehicle: saline with Tween-80
[3] = dose: 200.0 mg/kg/injection, schedule: Q01DX009 (ip), vehicle: saline with Tween-80
[4] = dose: 400.0 mg/kg/injection, schedule: Q01DX009 (ip), vehicle: saline with Tween-80
[5] = dose: 100.0 mg/kg/injection, schedule: Q01DX009 (ip), vehicle: Klucel (hydroxypropylcellulose) (HPC)
[6] = dose: 400.0 mg/kg/injection, schedule: Q01DX009 (ip), vehicle: Klucel (hydroxypropylcellulose) (HPC)
[7] = dose: 100.0 mg/kg/injection, schedule: Q01DX009 (ip), vehicle: saline
[8] = dose: 200.0 mg/kg/injection, schedule: Q01DX009 (ip), vehicle: saline
[9] = dose: 400.0 mg/kg/injection, schedule: Q01DX009 (ip), vehicle: saline

## O=N[O-].[Co].[NH2-].[NH2-].[NH2-].[NH2-].[NH2-]
dose: 12.5 mg/kg/injection, schedule: Q01DX009 (ip), vehicle: saline
  T/C: 90 % of control
dose: 12.5 mg/kg/injection, schedule: Q04DX003 (ip), vehicle: saline
  T/C: 107 % of control
dose: 25.0 mg/kg/injection, schedule: Q01DX009 (ip), vehicle: saline
  T/C: 97 % of control
dose: 25.0 mg/kg/injection, schedule: Q04DX003 (ip), vehicle: saline
  T/C: 105 % of control
[1]
  T/C: 100 % of control
dose: 50.0 mg/kg/injection, schedule: Q04DX003 (ip), vehicle: saline
  T/C: 100 % of control

## O=C1C=CC2(CCC23C=CC(=O)O3)O1 (configuration not stated)
dose: 7.5 mg/kg/injection, schedule: Q01DX009 (ip), vehicle: Klucel (hydroxypropylcellulose) (HPC)
  T/C: 87 % of control
dose: 15.0 mg/kg/injection, schedule: Q01DX009 (ip), vehicle: Klucel (hydroxypropylcellulose) (HPC)
  T/C: 93 % of control
dose: 30.0 mg/kg/injection, schedule: Q01DX009 (ip), vehicle: Klucel (hydroxypropylcellulose) (HPC)
  T/C: 92 % of control

## C=C1CCN(c2ccc(Br)cc2)C1=O
dose: 4.0 mg/kg/injection, schedule: Q01DX009 (ip), vehicle: saline + alcohol
  T/C: 95 % of control
dose: 8.0 mg/kg/injection, schedule: Q01DX009 (ip), vehicle: saline + alcohol
  T/C: 101 % of control
dose: 16.0 mg/kg/injection, schedule: Q01DX009 (ip), vehicle: saline + alcohol
  T/C: 109 % of control
dose: 32.0 mg/kg/injection, schedule: Q01DX009 (ip), vehicle: saline + alcohol
  T/C: 95 % of control
dose: 64.0 mg/kg/injection, schedule: Q01DX009 (ip), vehicle: saline + alcohol
  T/C: 101 % of control

## Cc1cccc(C)c1NC(=O)Nc1cccc2ccccc12
dose: 100.0 mg/kg/injection, schedule: Q01DX009 (ip), vehicle: gum acacia
  T/C: 117 % of control
dose: 200.0 mg/kg/injection, schedule: Q01DX009 (ip), vehicle: gum acacia
  T/C: 109 % of control
dose: 400.0 mg/kg/injection, schedule: Q01DX009 (ip), vehicle: gum acacia
  T/C: 100 % of control

## Cc1cc2ncn(CO)c2cc1C
[2]
  T/C: 102 % of control
[3]
  T/C: 97 % of control
[4]
  T/C: 97 % of control

## O=C(OC1CCCCCCC1)C(F)(F)F
[5]
  T/C: 100 % of control
[6]
  T/C: 117 % of control

## CC(C)c1ccc(C(=O)CCCCl)cc1
[2]
  T/C: 93 % of control
[3]
  T/C: 86 % of control

## COc1ccc(/C=C2\C(=O)OC(=O)\C2=C\c2ccc(OC)c(OC)c2)cc1OC
dose: 12.5 mg/kg/injection, schedule: Q01DX009 (ip), vehicle: Klucel (hydroxypropylcellulose) (HPC)
  T/C: 98 % of control
dose: 25.0 mg/kg/injection, schedule: Q01DX009 (ip), vehicle: Klucel (hydroxypropylcellulose) (HPC)
  T/C: 90 % of control

## Cc1c2oc3c(C)ccc(C(=O)NC4C(=O)NC(C(C)C)C(=O)N5CC(Cl)CC5C(=O)N(C)CC(=O)N(C)C(C(C)C)C(=O)OC4C)c3nc-2c(C(=O)NC2C(=O)NC(C(C)C)C(=O)N3CC(Cl)CC3C(=O)N(C)CC(=O)N(C)C(C(C)C)C(=O)OC2C)c(N)c1=O (configuration not stated) (I: TV[X2][Sar][NMeV] / II: TV[X2][Sar][NMeV]; ester I:1-I:C, II:1-II:C; linker I:N-II:N via Actinocin(9to1); configuration not given here)
dose: 1080.0 micrograms/kg/injection, schedule: Q04DX003 (ip), vehicle: saline + alcohol
  T/C: 159 % of control
dose: 1800.0 micrograms/kg/injection, schedule: Q04DX003 (ip), vehicle: saline + alcohol
  T/C: 160 % of control

## OC(CI)C(O)C(O)C(O)CI (configuration not stated)
[7]
  T/C: 97 % of control
[8]
  T/C: 94 % of control
[9]
  T/C: 103 % of control

## COCCNCCOC
dose: 160.0 mg/kg/injection, schedule: Q01DX009 (ip), vehicle: saline
  T/C: 118 % of control
dose: 370.0 mg/kg/injection, schedule: Q01DX009 (ip), vehicle: saline
  T/C: 121 % of control

## COc1cc2ccc3cnccc3c2cc1OC
dose: 25.0 mg/kg/injection, schedule: Q01DX009 (ip), vehicle: water
  T/C: 99 % of control
dose: 50.0 mg/kg/injection, schedule: Q01DX009 (ip), vehicle: water
  T/C: 91 % of control
dose: 100.0 mg/kg/injection, schedule: Q01DX009 (ip), vehicle: water
  T/C: 98 % of control
dose: 200.0 mg/kg/injection, schedule: Q01DX009 (ip), vehicle: water
  T/C: 88 % of control

## CC1NC(=O)NC1=O (configuration not stated)
[5]
  T/C: 90 % of control
dose: 200.0 mg/kg/injection, schedule: Q01DX009 (ip), vehicle: Klucel (hydroxypropylcellulose) (HPC)
  T/C: 100 % of control
[6]
  T/C: 102 % of control

## CCN(CCCCOC(=O)c1ccc(OC)c(OC)c1)C(C)Cc1ccc(OC)cc1 (configuration not stated)
dose: 1.32 mg/kg/injection, schedule: Q01DX009 (ip), vehicle: saline
  T/C: 93 % of control
dose: 2.65 mg/kg/injection, schedule: Q01DX009 (ip), vehicle: saline
  T/C: 98 % of control
dose: 4.68 mg/kg/injection, schedule: Q04DX003 (ip), vehicle: saline
  T/C: 116 % of control
dose: 5.31 mg/kg/injection, schedule: Q01DX009 (ip), vehicle: saline
  T/C: 105 % of control and 107 % of control
dose: 9.37 mg/kg/injection, schedule: Q04DX003 (ip), vehicle: saline
  T/C: 111 % of control
dose: 10.6 mg/kg/injection, schedule: Q01DX009 (ip), vehicle: saline
  T/C: 88 % of control
dose: 10.62 mg/kg/injection, schedule: Q01DX009 (ip), vehicle: saline
  T/C: 88 % of control
dose: 18.75 mg/kg/injection, schedule: Q04DX003 (ip), vehicle: saline
  T/C: 119 % of control
dose: 21.2 mg/kg/injection, schedule: Q01DX009 (ip), vehicle: saline
  T/C: 90 % of control
dose: 21.25 mg/kg/injection, schedule: Q01DX009 (ip), vehicle: saline
  T/C: 91 % of control and 109 % of control
dose: 37.5 mg/kg/injection, schedule: Q04DX003 (ip), vehicle: saline
  T/C: 113 % of control
dose: 42.5 mg/kg/injection, schedule: Q01DX009 (ip), vehicle: saline
  T/C: 95 % of control and 101 % of control
dose: 75.0 mg/kg/injection, schedule: Q04DX003 (ip), vehicle: saline
  T/C: 119 % of control
dose: 85.0 mg/kg/injection, schedule: Q01DX009 (ip), vehicle: saline
  T/C: 87 % of control
dose: 110.0 mg/kg/injection, schedule: Q04DX003 (ip), vehicle: saline
  T/C: 112 % of control

## O=C(NCCCCC(NC(=O)c1ccccc1)C(=O)O)OCc1ccccc1 (configuration not stated)
dose: 50.0 mg/kg/injection, schedule: Q01DX009 (ip), vehicle: saline with Tween-80
  T/C: 101 % of control
[2]
  T/C: 96 % of control
[3]
  T/C: 95 % of control
[4]
  T/C: 86 % of control

## Cc1ncc(CO)c(CO)c1O
[1]
  T/C: 100 % of control
dose: 50.0 mg/kg/injection, schedule: Q08HX018 (ip), vehicle: saline
  T/C: 101 % of control
[7]
  T/C: 100 % of control
dose: 100.0 mg/kg/injection, schedule: Q08HX018 (ip), vehicle: saline
  T/C: 99 % of control
[8]
  T/C: 100 % of control
dose: 200.0 mg/kg/injection, schedule: Q08HX018 (ip), vehicle: saline
  T/C: 95 % of control
[9]
  T/C: 91 % of control
dose: 400.0 mg/kg/injection, schedule: Q08HX018 (ip), vehicle: saline
  T/C: 92 % of control
dose: 800.0 mg/kg/injection, schedule: Q01DX009 (ip), vehicle: saline
  T/C: 87 % of control
dose: 800.0 mg/kg/injection, schedule: Q08HX018 (ip), vehicle: saline
  T/C: 89 % of control

## Cc1ccc(S(=O)(=O)Nc2c([N+](=O)[O-])cc([N+](=O)[O-])c3ccccc23)cc1
dose: 6.25 mg/kg/injection, schedule: Q01DX009 (ip), vehicle: saline with Tween-80
  T/C: 107 % of control
dose: 12.5 mg/kg/injection, schedule: Q01DX009 (ip), vehicle: saline with Tween-80
  T/C: 100 % of control
dose: 25.0 mg/kg/injection, schedule: Q01DX009 (ip), vehicle: saline with Tween-80
  T/C: 112 % of control
